Results published in US20200093737A1, “PHARMACEUTICAL DOSAGE FORMS CONTAINING TASK-1 AND TASK-3 CHANNEL INHIBITORS, AND THE USE OF SAME IN BREATHING DISORDER THERAPY” (priority 2016, published 2020).
Marks after values point to notes of the source that are not given here.

Test system: upper airways
Test: Animal model of obstructive sleep apnoea in the pig (collapsibility of the upper airways under negative pressure)
Assay type: in vivo, German Landrace pigs
Text: The effects of the formulations according to the invention of the inhibitors of TASK-1 and/or TASK-3 channels on the activation threshold of the genioglossus muscle by negative pressure and the collapsibility of the upper airways were investigated in a pig model for obstructive sleep apnoea. Using negative pressure, it is possible to induce collapse and thus obstruction of the upper airways in anaesthetized, spontaneously breathing pigs [Wirth et al., Sleep 36, 699-708 (2013)]. German Landrace pigs were used for the model. Since the nasal axis is in an almost vertical position in humans in a horizontal sleeping position, the pigs in the experiments were fixed in a sitting position (70 degrees), wherein the nose pointed upwards. After nasal administration, the formulation therefore flowed downwards over all regions of the upper airways. The pigs were anaesthetized and tracheotomized. One cannula each was inserted into the rostral and the caudal part of the trachea. Using a T connector, the rostral cannula was connected on the one hand to a device generating negative pressure and on the other hand to the caudal cannula. Using a T connector, the caudal cannula was connected to the rostral cannula and to a tube which allowed spontaneous breathing circumventing the upper airways. By appropriate closing and opening of the tubes it was thus possible for the pig to change from normal nasal breathing to breathing via the caudal cannula during the time when the upper airways were isolated and were connected to the device for generating negative pressure. The muscle activity of the Musculus genioglossus was recorded by electromyogram (EMG). At certain points in time, the collapsibility of the upper airways was tested by having the pig breathe via the caudal cannula and applying negative pressures of −50, −100 and −150 mbar (corresponding to −50, −100 and −150 cm water column (cm H2O)) to the upper airways. This caused the upper airways to collapse, which manifested itself in an interruption of the airflow and a pressure drop in the tube system. This test was conducted prior to administration of the test substance and at certain intervals after administration of the test substance. An appropriately effective test substance could prevent this collapse of the airways in the inspiratory phase. After changeover from nasal breathing to breathing via the caudal cannula, it was not possible to measure any EMG activity of the Musculus genioglossus in the anaesthetized pig. As a further test, the negative pressure at which EMG activity restarted was then determined. This threshold value was, if a test substance was effective, shifted to more positive values. The test was likewise conducted prior to the administration of the test substance and at certain intervals after the administration of the test substance. The test substance was administered by the nasal route. The results shown in the tables which follow were conducted with the compounds listed in Table 1 as Example 1, Example 3 and Example 4. Unless stated otherwise, the data were measured at a negative pressure of −100 mbar (corresponding to −100 cm water column (cm H2O)) on the upper airways. The active ingredients listed in Table 1 as Example 1, Example 3 and Example 4 were dissolved in the various formulations listed in Table 2 below and administered in an amount of 0 μg, 3 μg, 10 μg, 30 μg or 100 μg per pig. The active ingredient formulation or the pure vehicle was each administered with a pipette at a volume of 400 μl in each nostril. The duration of action in this pig model is defined as the time [min] in which a collapse of the upper airways was not observed in any animal, as a mean value of the specified number of animals. A duration of action specified as “>” X min signifies that the experiment was terminated at X min and up to this point a collapse of the upper airways was still not observed in any animal.

O=C(C1CCCC1)N1CCN(Cc2c(-c3ccc(Br)cc3)nc3ccccn23)CC1 [Example 1, (4-{[2-(4-bromophenyl)imidazo[1,2-a]pyridin-3-yl]methyl}piperazin-1-yl)(cyclopentyl)methanone]
Duration of action [min], mean value (Formulation 1 (no glycerol), 10 μg per pig nasal, -50 mbar): 150 min | Duration of action [min], mean value (Formulation 1 (no glycerol), 10 μg per pig nasal, -100 mbar): 120 min | Duration of action [min], mean value (Formulation 3 (glycerol 2.5% w/v), 10 μg per pig nasal, -50 mbar): >270 min | Duration of action [min], mean value (Formulation 3 (glycerol 2.5% w/v), 10 μg per pig nasal, -100 mbar): 240 min

COc1cccc(C(=O)N2CCN(Cc3c(-c4ccc(Cl)cc4)nc4ccccn34)CC2)n1 [Example 3, (4-{[2-(4-chlorophenyl)imidazo[1,2-a]pyridin-3-yl]methyl}piperazin-1-yl)(6-methoxypyridin-2-yl)methanone]
Duration of action [min], mean value (Formulation 1 (no glycerol), 30 μg per pig nasal, -100 mbar): 180* min | Duration of action [min], mean value (Formulation 1 (phosphate buffer pH 7/polysorbate 80, no glycerol), 3 μg per pig nasal, -100 mbar): 150 min | Duration of action [min], mean value (Formulation 2 (5% w/v glycerol 85%, 4.25 absolute), 3 μg per pig nasal, -100 mbar): 210 min | Duration of action [min], mean value (Formulation 3 (2.5% w/v glycerol 85%, 2.125 absolute), 3 μg per pig nasal, -100 mbar): 240 min | Duration of action [min], mean value (Formulation 3 (2.5% w/v glycerol 85%, 2.125 absolute), 30 μg per pig nasal, -100 mbar): 390 min | Duration of action [min], mean value (Formulation 4 (1% w/v glycerol 85%, 0.85 absolute), 3 μg per pig nasal, -100 mbar): 150 min | Duration of action [min], mean value (Formulation 5 (2.5% w/v glycerol 85% + 20% w/v PEG400), 3 μg per pig nasal, -100 mbar): 240 min | Duration of action [min], mean value (Formulation 6 (20% w/v propylene glycol, no glycerol), 30 μg per pig nasal, -100 mbar): 180 min | Duration of action [min], mean value (Formulation 7 (1.25% w/v Na-CMC, no glycerol), 3 μg per pig nasal, -100 mbar): 120 min

O=C(c1ccccc1F)N1CCN(Cc2c(-c3ccc(Br)cc3)nc3ccccn23)CC1 [Example 4, (4-{[2-(4-bromophenyl)imidazo[1,2-a]pyridin-3-yl]methyl}piperazin-1-yl)(2-fluorophenyl)methanone]
Duration of action [min], mean value (Formulation 1 (no glycerol), 100 μg per pig nasal, -50 mbar): 180 min | Duration of action [min], mean value (Formulation 1 (no glycerol), 100 μg per pig nasal, -100 mbar): 180 min | Duration of action [min], mean value (Formulation 3 (glycerol 2.5% w/v), 100 μg per pig nasal, -50 mbar): >300 min | Duration of action [min], mean value (Formulation 3 (glycerol 2.5% w/v), 100 μg per pig nasal, -100 mbar): 270 min
